Here are results for 1 molecule from ChEMBL document CHEMBL1201862, “PubChem BioAssay data set” (2004).

By EC50 is commonly meant the concentration at which the effect is half-maximal. What is called IC50 is the concentration that gives 50% inhibition.

Structures are written as SMILES. Activity calls are given as the source filed them.

Test [1] relates to HEK293. Description: inhibition of NOD1-driven NF-kB reporter – cell-based, luminescence, uHTS, primary screen (AID 1578). It counts as functional. The following applies: Homo sapiens.
Test [2] addresses Nucleotide-binding oligomerization domain-containing protein 2 (Homo sapiens, UniProt Q9HC29). Description: inhibition of NOD2-driven NF-kB reporter – cell-based, luminescence, uHTS, HEK293 (AID 1566). Format: functional.
The target of the next test is T1, Cysteine protease ATG4B (Homo sapiens, UniProt Q9Y4P1).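 Note: Fluorescence-based dose-response confirmation assay measuring inhibition of ATG4B activity.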
T1 sequence (Q9Y4P1 whole entry): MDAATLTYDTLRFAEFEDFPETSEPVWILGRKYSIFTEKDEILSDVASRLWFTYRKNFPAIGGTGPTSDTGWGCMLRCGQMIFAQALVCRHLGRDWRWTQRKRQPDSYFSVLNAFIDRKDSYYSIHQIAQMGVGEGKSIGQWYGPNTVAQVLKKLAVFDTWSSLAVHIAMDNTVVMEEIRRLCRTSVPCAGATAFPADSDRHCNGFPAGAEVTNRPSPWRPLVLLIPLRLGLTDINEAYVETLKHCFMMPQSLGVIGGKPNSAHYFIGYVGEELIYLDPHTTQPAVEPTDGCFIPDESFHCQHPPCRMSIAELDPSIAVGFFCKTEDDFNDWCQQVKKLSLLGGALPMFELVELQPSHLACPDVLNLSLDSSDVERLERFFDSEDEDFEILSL
Format: functional.

Test [3] deals with HEK293. Description: cells. It counts as functional, cell-based. The following applies: Homo sapiens.
In a further test the target is Phospholipase A2 (Homo sapiens, UniProt P04054). It counts as functional.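 Note: confirmatory dose-response counterscreen on phospholipase A2, testing hits that came from an ultra-high-throughput screen for ATG4B inhibitors.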
The nature of test [4]: HEK-293T cell viability reduction – luminescence, B-cell screen hits, cytotoxicity control for BCR NF-kB inhibitor project, dose response (AID 489021).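 Note: HEK-293T cells carrying an NF-kB luciferase reporter; cells exposed to compound for about 14 hours before viability readout.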 Format: functional, cell-based.
The test system of test [5] is HEK293. Description: cells. Format: functional, cell-based. The conditions noted are these: Homo sapiens. The source holds these as a separate data set.
Test [6] deals with HEK293. Description: cells. It counts as functional, cell-based. The conditions noted are these: Homo sapiens. This is another data set of the same source.
In test [7] the target is Luciferin 4-monooxygenase (Photinus pyralis, UniProt P08659). Description: inhibition of purified Photinus pyralis luciferase – biochemical, luminescence, dose response (AID 1891).
The test system of test [8] is HEK293. Description: NOD2 signaling inhibitors in MDP-stimulated cells, cell-based, uHTS, luminescence (AID 2001). Format: functional. The conditions noted are these: Homo sapiens.
The nature of test [9]: Luminescence Cell-Based Dose Confirmation HTS to Identify Inhibitors of Platelet Dense Granule Release. [Related pubchem assays: 1663 (Primary HTS), 1678 (Summary of Project)]. Format: functional.

Chain of Nucleotide-binding oligomerization domain-containing protein 2 (Q9HC29 whole entry, the tested form may be a part): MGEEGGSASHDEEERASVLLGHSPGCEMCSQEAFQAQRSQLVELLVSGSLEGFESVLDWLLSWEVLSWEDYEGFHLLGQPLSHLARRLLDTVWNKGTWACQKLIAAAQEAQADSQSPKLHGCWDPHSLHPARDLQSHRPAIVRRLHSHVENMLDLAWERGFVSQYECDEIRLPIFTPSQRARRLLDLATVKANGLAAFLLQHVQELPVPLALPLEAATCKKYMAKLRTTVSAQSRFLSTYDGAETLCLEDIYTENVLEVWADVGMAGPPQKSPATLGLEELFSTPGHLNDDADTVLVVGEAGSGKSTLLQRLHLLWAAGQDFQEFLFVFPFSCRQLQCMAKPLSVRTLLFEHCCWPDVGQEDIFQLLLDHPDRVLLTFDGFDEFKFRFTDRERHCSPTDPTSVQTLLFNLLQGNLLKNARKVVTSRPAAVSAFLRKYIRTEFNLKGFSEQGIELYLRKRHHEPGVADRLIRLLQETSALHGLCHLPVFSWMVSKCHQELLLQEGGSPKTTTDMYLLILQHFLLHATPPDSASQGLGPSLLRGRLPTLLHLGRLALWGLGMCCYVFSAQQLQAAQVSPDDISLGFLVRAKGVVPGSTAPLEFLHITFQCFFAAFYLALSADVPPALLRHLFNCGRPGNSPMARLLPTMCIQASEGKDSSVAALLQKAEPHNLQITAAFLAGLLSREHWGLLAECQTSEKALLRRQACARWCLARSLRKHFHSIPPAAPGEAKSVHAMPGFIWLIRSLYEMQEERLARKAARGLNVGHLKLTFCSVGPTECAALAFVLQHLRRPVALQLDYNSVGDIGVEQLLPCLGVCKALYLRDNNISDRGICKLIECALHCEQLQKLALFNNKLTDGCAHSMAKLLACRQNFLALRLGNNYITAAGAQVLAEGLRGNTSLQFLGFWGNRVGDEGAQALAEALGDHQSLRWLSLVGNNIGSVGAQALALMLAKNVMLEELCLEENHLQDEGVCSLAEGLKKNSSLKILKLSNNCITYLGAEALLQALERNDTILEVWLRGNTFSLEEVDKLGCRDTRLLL
Chain of Luciferin 4-monooxygenase (P08659 whole entry): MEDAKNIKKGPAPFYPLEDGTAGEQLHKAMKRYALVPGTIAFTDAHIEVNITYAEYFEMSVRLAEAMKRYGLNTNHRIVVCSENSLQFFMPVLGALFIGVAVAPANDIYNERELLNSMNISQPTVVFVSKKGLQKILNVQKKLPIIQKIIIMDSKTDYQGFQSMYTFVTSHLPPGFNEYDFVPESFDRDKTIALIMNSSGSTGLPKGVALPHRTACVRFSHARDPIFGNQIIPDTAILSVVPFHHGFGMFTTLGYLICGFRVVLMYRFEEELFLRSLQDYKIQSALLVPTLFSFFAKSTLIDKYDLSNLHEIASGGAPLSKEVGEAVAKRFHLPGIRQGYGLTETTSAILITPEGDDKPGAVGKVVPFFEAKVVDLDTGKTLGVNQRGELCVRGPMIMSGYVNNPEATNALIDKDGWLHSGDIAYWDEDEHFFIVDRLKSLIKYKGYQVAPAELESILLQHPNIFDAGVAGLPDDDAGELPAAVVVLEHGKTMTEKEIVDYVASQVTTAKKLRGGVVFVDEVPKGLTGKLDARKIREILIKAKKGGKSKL
Chain of Phospholipase A2 (P04054 whole entry): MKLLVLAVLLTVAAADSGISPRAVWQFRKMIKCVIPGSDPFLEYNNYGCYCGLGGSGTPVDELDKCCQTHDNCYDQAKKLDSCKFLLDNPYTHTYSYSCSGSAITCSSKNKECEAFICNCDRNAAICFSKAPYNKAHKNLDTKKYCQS

As to `O=C(CCCN1C(=O)/C(=C/c2ccccc2Cl)SC1=S)NNC(=O)c1ccccc1`, the EC50 is > 20 µM (inactive) in the test on HEK293 [1], > 20 µM (inactive) in test [2], > 112 µM (not active) in test [7] and > 112 µM (not active) in [9]. The half-maximal inhibitory concentration (IC50) at Cysteine protease ATG4B was 16.6 µM (active); in the test with HEK293 [3] it was > 20 µM (inactive); on Phospholipase A2, 5.28 µM (active); in test [4] it was > 80 µM (inactive); in the test on HEK293 [5] it was 3.13 µM (active); in the test on HEK293 [6], > 20 µM (inactive). The IC50 in the test on HEK293 [8] is 3.04 µM (active).
